From patent publication US20090131493A1, “SUBSTITUTED BENZIMIDAZOLES FOR TREATMENT OF HISTOMONIASIS” (BAYER HEALTHCARE AG, priority 2005, published 2009)

Experiments:
[1] = system: Heterakis gallinarum; details: treatment for 14 days after the time of infection; directed against Heterakis gallinarum, not H. meleagridis; cited from earlier work
[2] = system: histomonas; details: cited from earlier work
[3] = system: Histomonas meleagridis; test: Test 1: cage trial, turkey chicks intracloacally infected with Histomonas meleagridis, weight gain; format: in vivo; details: 1 day before to 13 days after infection, uninfected/untreated group 4 set at 100%
Excerpt: (§1) Young, susceptible turkey cock chicks were kept in cages and underwent intracloacal infection in a conventional way at an age of 2 weeks with about 5 log 10 infectious Histomonas meleagridis microorganisms. With the test groups which had been treated with the test compounds, two control groups were kept for comparison purposes (infected/untreated and uninfected/untreated). The test groups consisted of 6 to 10 turkeys. The test compounds, either the compound of the formula (I-1) or (I-2), were administered to the treated test groups 1 day before the infection and 13 days thereafter, with the feed. At the end of the trial, the animals were sacrificed and examined for lesions typical of histomoniasis (“blackhead disease”).

[4] = system: Histomonas meleagridis; test: Test 2: cage trial, turkey chicks intracloacally infected with Histomonas meleagridis, liver and caecum lesions; format: in vivo; details: for Caecum lesions / Liver lesions: scale 0 (no lesions) to 4 (most severe lesions)
Excerpt: as §1

[5] = turkey cock; cited from earlier work

CCCSc1ccc2nc(NC(=O)OC)[nH]c2c1 [albendazole]
activity in vivo [1]: prophylactic activity
activity on histomonas in vitro [2]: inadequate activity

CCN(Cn1c(C(F)(F)F)nc2c(Br)cc3c(c21)OC(F)(F)C(F)(F)O3)C(=O)OC [compound (I-1)]
Weight gain ([3]; 5 ppm in the feed): 61%
Caecum lesions ([4]; 5 ppm in the feed): 3.5
Liver lesions ([4]; 5 ppm in the feed): 0.8
Caecum lesions ([4]; 15 ppm in the feed): 3
Liver lesions ([4]; 15 ppm in the feed): 0

Cc1oc(=O)oc1Cn1c(C(F)(F)F)nc2c(Cl)cc3c(c21)OC(F)(F)C(F)(F)O3 [compound (I-2)]
Weight gain ([3]; 10 ppm in the feed): 35%
Caecum lesions ([4]; 10 ppm in the feed): 2.1
Liver lesions ([4]; 10 ppm in the feed): 0
Caecum lesions ([4]; 30 ppm in the feed): 0.8
Liver lesions ([4]; 30 ppm in the feed): 0
effect on caecum lesions (in words) ([4]; Test 2, summary in text): reduced the caecum lesions

COC(=O)Nc1nc2ccc(Sc3ccccc3)cc2[nH]1 [fenbendazole]
activity in vivo [1]: prophylactic activity
activity on histomonas in vitro [2]: inadequate activity

O=[N+]([O-])c1cc([As](=O)(O)O)ccc1O [roxarsone]
effect of doubling the dosage [5]: impaired motor functions
